The text below walks through data of patent US20240300904A1, “PYRIDAZINONES FOR THE TREATMENT OR PREVENTION OF HYPERTENSION” (UNIVERSITETET I OSLO, priority 2021, published 2024).

Data set [1] can be described thus: Cytotoxicity screening (Cyprotex Discovery Ltd.). In kind it is cell-based.
Data set [2] addresses T1, β1-adrenergic receptor (Homo sapiens, UniProt P08588).
T1 construct: purchased Discover X/Eurofins SafetyScan E/IC50 ELECT
In words: Safety pharmacology panel (SafetyScan E/IC50 ELECT). The class given is cell-based. As to conditions: minor activity; 78-target panel.

The test system of data set [3] is HeLa cells. In words: MTT assay (cytotoxicity). The class given is cell-based. Particulars: 24 and 48 h, compared with compounds 3 and 11. The protocol:
Cells were incubated for 24 and 48 h with increasing concentrations of the indicated compound. The data represent formazan formation (absorbance) as a percentage of the negative control (1% DMSO).
The MTT (3-(4,5-dimethylthiazol-2-yl)-2,5-diphenyltetrazolium bromide) tetrazolium reduction assay was used to measure cytotoxicity of the compounds in vitro. Viable cells with active metabolism convert MTT into a purple colored formazan product with an absorbance maximum near 570 nm. HeLa cells were plated in 96-well plates in culture medium (DMEM (Dulbecco's Modified Eagle's Medium, Gibco®, ThermoFischer Scientific) supplemented with 10% Fetal Bovine Serum (FBS), 100 U/ml penicillin, 0.1 mg/ml streptomycin) the day before experiments. Cells were incubated for 24 or 48 h at 37° C. with increasing concentrations of each compound (in 1% DMSO). 1% DMSO and 20 mM H2O2 in culture medium were used as negative and positive control, respectively. MTT solution at a final concentration of 0.45 mg/ml was added to the wells and cells incubated for 1 to 4 hours at 37° C. Solubilization solution (40% (vol/vol) dimethylformamide (DMF), 2% (vol/vol) glacial acetic acid and 16% (wt/vol) sodium dodecyl sulfate (SDS)) was added to each well to dissolve formazan crystals. Absorbance was measured at 570 nm.
On the technique in general: Formazan colour is commonly taken as a measure of viable cells.

The target of data set [4] is T2, β2-adrenergic receptor (Homo sapiens, UniProt P07550).
T2 construct: purchased Discover X/Eurofins SafetyScan E/IC50 ELECT
T2 sequence (P07550 whole entry): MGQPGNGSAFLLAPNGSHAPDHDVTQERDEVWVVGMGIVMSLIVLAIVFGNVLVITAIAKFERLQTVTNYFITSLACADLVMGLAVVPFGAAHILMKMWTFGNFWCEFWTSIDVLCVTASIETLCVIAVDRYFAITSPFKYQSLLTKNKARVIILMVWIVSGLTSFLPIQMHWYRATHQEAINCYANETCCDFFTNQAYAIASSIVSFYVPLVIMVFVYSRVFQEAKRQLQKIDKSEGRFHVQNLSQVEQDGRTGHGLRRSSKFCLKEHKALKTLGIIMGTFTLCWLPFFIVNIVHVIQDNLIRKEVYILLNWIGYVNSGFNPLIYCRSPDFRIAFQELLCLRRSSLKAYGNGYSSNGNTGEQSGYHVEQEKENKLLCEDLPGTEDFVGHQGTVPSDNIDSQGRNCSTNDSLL
In words: Safety pharmacology panel (SafetyScan E/IC50 ELECT). In kind it is cell-based. Particulars: minor activity; 78-target panel.

The target of data set [5] is T3, dopamine D1-receptor (Homo sapiens, UniProt P21728).
T3 construct: purchased Discover X/Eurofins SafetyScan E/IC50 ELECT
T3 sequence (P21728 whole entry): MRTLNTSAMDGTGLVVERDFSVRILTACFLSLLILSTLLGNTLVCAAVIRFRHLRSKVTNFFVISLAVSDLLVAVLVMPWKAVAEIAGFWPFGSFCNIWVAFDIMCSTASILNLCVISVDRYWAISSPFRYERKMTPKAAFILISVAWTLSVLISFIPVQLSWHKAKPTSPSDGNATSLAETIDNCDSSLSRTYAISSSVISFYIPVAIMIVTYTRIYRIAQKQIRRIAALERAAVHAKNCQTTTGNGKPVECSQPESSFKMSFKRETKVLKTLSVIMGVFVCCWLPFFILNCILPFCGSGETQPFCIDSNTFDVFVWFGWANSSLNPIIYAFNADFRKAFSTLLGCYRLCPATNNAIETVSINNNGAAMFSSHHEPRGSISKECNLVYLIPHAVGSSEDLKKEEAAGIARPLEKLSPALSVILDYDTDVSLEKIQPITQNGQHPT
The description is as above. In kind it is cell-based. Particulars: minor activity; 78-target panel.

For data set [6], the target named is T4, human (h) natriuretic peptide receptor A (hNPR-A) (Homo sapiens, UniProt P16066).
T4 construct: expressed in transfected cells
T4 sequence (P16066 33-1061): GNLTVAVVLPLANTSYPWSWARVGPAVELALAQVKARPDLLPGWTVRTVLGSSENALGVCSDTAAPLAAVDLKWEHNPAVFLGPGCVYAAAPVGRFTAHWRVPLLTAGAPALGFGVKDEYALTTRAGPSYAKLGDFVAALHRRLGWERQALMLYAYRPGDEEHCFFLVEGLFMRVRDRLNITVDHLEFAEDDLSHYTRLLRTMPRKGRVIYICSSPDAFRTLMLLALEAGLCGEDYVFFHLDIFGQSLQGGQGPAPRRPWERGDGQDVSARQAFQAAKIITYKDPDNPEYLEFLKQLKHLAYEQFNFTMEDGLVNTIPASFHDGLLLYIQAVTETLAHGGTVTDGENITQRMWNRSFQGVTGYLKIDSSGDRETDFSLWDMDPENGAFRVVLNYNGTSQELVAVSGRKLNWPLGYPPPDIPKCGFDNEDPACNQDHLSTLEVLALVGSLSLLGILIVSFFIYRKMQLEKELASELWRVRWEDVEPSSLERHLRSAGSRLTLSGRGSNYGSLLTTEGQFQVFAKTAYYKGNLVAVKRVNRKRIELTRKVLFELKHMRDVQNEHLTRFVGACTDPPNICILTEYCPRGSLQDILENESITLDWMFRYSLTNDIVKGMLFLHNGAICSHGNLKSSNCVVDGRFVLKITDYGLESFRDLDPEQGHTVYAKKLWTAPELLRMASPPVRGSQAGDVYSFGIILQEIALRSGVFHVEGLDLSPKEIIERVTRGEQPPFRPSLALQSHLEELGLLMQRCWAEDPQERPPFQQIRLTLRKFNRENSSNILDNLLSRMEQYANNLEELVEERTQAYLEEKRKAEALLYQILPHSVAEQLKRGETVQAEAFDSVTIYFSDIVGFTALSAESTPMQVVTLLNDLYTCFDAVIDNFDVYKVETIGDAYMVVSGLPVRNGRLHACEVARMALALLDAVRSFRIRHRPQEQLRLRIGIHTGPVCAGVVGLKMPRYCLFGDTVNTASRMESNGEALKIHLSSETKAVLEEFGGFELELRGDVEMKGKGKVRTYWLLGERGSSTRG
T4 sequence (P16860 103-134 partner limits assumed): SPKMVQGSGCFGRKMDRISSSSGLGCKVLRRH
In words: AlphaScreen assay for cGMP: BNP-mediated NPR-A activity (cGMP production). Particulars: conc. response of compound + 0.1 nM BNP. The class given is cell-based. The protocol: QBIHEK293A cells stably transfected with human (h) natriuretic peptide receptor A (hNPR-A) and hNPR-B were made as described in Bach et al., Naunyn Schmiedebergs Arch. Pharmacol. 2014; 387:5-14. Cells were grown in DMEM (Dulbecco's Modified Eagle's Medium, Gibco®, ThermoFischer Scientific) supplemented with 10% Fetal Bovine Serum (FBS), 100 U/ml penicillin, 0.1 mg/ml streptomycin, and 0.4 mg/ml G418 (geneticin) as selection antibiotic.
The AlphaScreen assay for cGMP (Perkin Elmer) was performed as described in Bach et al. (see above). NPR-A and NPR-B expressing HEK293 cells were split the day before the experiment and harvested using an EDTA solution (Versene, Invitrogen, ThermoFischer Scientific). A final concentration of 6000 cells/well was re-suspended in stimulation buffer (5 mM HEPES in HBSS at pH 7.4, 0.1% BSA) with IBMX (0.7 mM final). Compounds were dissolved in stimulation buffer and added to wells in increasing concentrations. Cells were incubated with the indicated compounds 20 minutes before addition of agonists (human BNP, human CNP or human proBNP) in various concentrations. Cells were stimulated for 20 minutes with agonist before the reactions were stopped (i.e. cells lysed) by adding the AlphaScreen Acceptor bead mix (Acceptor beads-anti-cGMP antibody and 0.5% Tween-20 in 5 mM HEPES buffer at pH 7.4). After 1 hour incubation, the Donor bead mix (Donor beads, biotinylated cGMP, 0.5% Tween-20 in 5 mM HEPES buffer at pH 7.4) was added (40 μl total volume) and incubation continued for 2 hours. The luminescence signals were analyzed quantitatively by reading of the plates on the EnVision® Multilabel Plate Reader (Perkin Elmer) using AlphaScreen emission 570 nm filter.
(In Alpha technology, singlet oxygen from a donor bead excites a nearby acceptor bead.)

Data set [7] has as its system rat aortic rings. In words: Vasorelaxation: ANP-mediated relaxation of rat aortic rings. As to conditions: conc. response of ANP in the absence (ANP) or presence of 10 μM compound, L-NAME present. On the procedure: Male Sprague-Dawley (6-8 weeks old) rats were killed by cervical dislocation. The thoracic aorta was dissected and rings (˜4 mm length) mounted in organ baths containing physiological salt solution (PSS; composition in mM: NaCl 119, KCl 4.7, CaCl2 2.5, MgSO4 1.2, NaHCO3 25, KH2PO4 1.2, and glucose 5.5), maintained at 37° C. and gassed with 5% CO2 in O2. Changes in isometric tension were measured in the tissues under a basal tension of 1 g. After equilibration, vessels were repeatedly contracted with KCl (48 mM) until responses were reproducible. A cumulative concentration-response curve was then constructed to the thromboxane receptor agonist 9,11-dideoxy-11α,9α-epoxymethano-prostaglandin F2α (U46619; 10 nm-1 μM). Arteries were then treated with the nitric oxide synthase (NOS) inhibitor L-NG-nitroarginine methyl ester (300 μM; to block the production of endogenous nitric oxide) and pre-contracted with an EC80 concentration of U46619. Once a stable response was achieved, cumulative concentration-response curves were constructed to ANP (0.001-1 μM) in the absence or presence of Compound 1 or Compound 2 (all 10 μM, incubated for 30 min prior to the administration of ANP).

A word on the IC50: it is the concentration at which inhibition is half-maximal. The low end stands for inhibition by little substance, the high end for a need for much substance.

T1 sequence (P08588 whole entry): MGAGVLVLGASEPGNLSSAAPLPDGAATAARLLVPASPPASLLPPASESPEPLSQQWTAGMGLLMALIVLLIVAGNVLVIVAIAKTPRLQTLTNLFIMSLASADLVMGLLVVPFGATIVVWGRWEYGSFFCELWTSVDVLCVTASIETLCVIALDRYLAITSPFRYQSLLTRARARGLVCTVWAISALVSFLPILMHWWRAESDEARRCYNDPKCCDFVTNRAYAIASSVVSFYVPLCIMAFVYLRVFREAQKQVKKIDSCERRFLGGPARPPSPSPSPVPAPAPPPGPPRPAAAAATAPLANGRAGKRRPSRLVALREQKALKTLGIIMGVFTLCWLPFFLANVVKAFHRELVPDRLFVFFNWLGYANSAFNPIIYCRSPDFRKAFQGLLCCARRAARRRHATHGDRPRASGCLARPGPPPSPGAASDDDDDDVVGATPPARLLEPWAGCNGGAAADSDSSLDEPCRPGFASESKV

For the compound `O=C(Cn1nccc(Cl)c1=O)c1ccc(Cl)cc1Cl` [Compound 24, 4-chloro-2-(2-(2,4-dichlorophenyl)-2-oxoethyl) pyridazin-3(2H)-one], in data set [1] (15 μM versus EC50 of compound 24 at the target), the “non-cytotoxic concentration relative to EC50 at the target” value is 70-80 fold. In addition, the “cytotoxic effects (cell count, nuclear size, DNA structure, cell membrane permeability, mitochondrial mass, mitochondrial membrane potential, cytochrome c)” value in data set [1] (at concentrations below 15 μM) is listed as “did not show any cytotoxic effects”. Moreover, the 50% inhibitory concentration (IC50) in data set [2], in data set [4] and in data set [5] was > 6 µM throughout. Besides, the “toxicity in MTT assay relative to corresponding dichloro compounds” value in data set [3] is “lower toxicity”. The EC50 in data set [6] (NPR-A-expressing HEK293 cells, read-out: -LogEC50 (compound) (converted)) was 0.2 µM. In addition, in data set [6] (percentage of maximum BNP-mediated cGMP production, read-out: Max Response), the Emax came out at 37.8%.
Take “ANP: atrial natriuretic peptide, endogenous NPR-A agonist used in vasorelaxation”: the “-LogEC50 (ANP)” value in data set [7] came out at 8.3.
